Results from ChEMBL document CHEMBL4680302, “Biologic-like In Vivo Efficacy with Small Molecule Inhibitors of TNFα Identified Using Scaffold Hopping and Structure-Based Drug Design Approaches” (J Med Chem, 2020).
Active and inactive are the calls of the source. No cut-off for these calls is given here.

Assays:
[1] = target: T1, Tumor necrosis factor receptor superfamily member 1A (Homo sapiens) (UniProt P19438); assay: Binding affinity to TNFR1 (unknown origin) assessed as apparent molecular weight of protein at 25 uM in presence of human TNFalpha by ultracentrifugation analysis (reference value: 27 kDa)
T1 sequence (whole entry): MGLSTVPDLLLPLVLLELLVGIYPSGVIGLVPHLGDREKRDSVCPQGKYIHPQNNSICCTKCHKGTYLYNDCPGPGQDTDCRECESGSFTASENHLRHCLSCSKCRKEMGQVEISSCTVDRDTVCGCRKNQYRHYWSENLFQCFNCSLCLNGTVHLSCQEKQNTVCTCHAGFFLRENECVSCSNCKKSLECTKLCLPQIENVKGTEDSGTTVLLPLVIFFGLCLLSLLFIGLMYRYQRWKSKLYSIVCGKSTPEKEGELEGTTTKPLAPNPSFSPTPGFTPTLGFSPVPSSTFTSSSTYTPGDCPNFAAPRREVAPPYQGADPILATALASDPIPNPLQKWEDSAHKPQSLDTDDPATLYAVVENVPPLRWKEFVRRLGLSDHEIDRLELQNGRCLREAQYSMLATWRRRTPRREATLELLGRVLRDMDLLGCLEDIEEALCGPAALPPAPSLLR

Tumor necrosis factor = Tumor necrosis factor (Homo sapiens, UniProt P01375); assay: Displacement of fluorescent labeled probe from human recombinant His-tagged TNFalpha (77 to 233 residues) expressed in Escherichia coli preincubated for 1 hr followed by fluorogenic probe addition and measured after 3 hrs by HTRF assay
Sequence of Tumor necrosis factor (P01375 whole entry, the tested form may be a part): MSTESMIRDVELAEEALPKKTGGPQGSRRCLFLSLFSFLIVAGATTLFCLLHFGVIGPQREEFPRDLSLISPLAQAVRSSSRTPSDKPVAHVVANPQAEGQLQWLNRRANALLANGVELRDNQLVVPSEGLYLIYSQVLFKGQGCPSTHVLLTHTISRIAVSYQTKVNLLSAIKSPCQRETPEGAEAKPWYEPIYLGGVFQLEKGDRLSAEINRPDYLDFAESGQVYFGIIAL

Mus musculus [2] = assay: Antiarthritic activity against anticollagen antibody-induced arthritis BALB/c mouse model assessed as reduction in LPS-induced CXCL12 levels administered orally twice daily followed by LPS stimulation after 6 hrs measured on day 12 by RT-PCR analysis; type: functional, organism-based; conditions: dose 2-10 mg/kg, time 12.0 day
Mus musculus [3] = assay: Antiarthritic activity against anticollagen antibody-induced arthritis BALB/c mouse model assessed as reduction in LPS-induced IL-17a production administered orally twice daily followed by LPS stimulation after 6 hrs measured on day 12 by RT-PCR analysis; type: functional, organism-based; conditions: dose 2-10 mg/kg, time 12.0 day
[4] = target: T2, Tumor necrosis factor ligand superfamily member 6 (Homo sapiens, UniProt P48023); assay: Inhibition of FasL (unknown origin)
T2 sequence (P48023 whole entry): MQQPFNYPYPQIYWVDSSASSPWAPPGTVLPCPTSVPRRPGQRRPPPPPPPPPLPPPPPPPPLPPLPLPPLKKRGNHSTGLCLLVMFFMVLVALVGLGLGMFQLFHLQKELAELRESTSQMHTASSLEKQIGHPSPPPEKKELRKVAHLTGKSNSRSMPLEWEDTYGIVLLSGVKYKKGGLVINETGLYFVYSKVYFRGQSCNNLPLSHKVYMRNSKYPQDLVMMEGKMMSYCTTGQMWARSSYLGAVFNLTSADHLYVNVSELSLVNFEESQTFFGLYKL

[5] = Permeability of the compound across apical to basolateral side of membrane in human Caco-2 cells; type: ADME, cell-based; conditions: read-out: permeability
[6] = Protein binding in human assessed as unbound fraction; type: ADME
[7] = Selectivity ratio of drug exposure in TNFalpha-induced C57BL/6J mouse at 5 mg/kg, po at 3 hrs post dose to IC50 for inhibition of human TNFalpha expressed in HEK-Blue-CD40L cells assessed as inhibition of NFkappaB activation by quanti-blue based SEAP assay
[8] = Terminal drug exposure in anticollagen antibody-induced arthritis BALB/c mouse model at 2 mg/kg, po BID followed by LPS stimulation after 6 hrs measured on day 12; type: ADME, organism-based; conditions: in vivo, time 12 day, read-out: Drug uptake
[9] = Cmax in mouse at 2 mg/kg, po; type: ADME, organism-based; design: route oral, dose 2 mg/kg; conditions: in vivo
[10] = Metabolic stability in mouse liver microsomes assessed as half-life; type: ADME, Microsome
[11] = Clearance in mouse at 0.5 mg/kg, iv; type: ADME, organism-based; conditions: in vivo
[12] = Oral bioavailability in mouse at 2 mg/kg; type: ADME, organism-based; conditions: in vivo
Cytochrome P450 2C19 = Cytochrome P450 2C19 (Homo sapiens, UniProt P33261); assay: Inhibition of recombinant CYP2C19 (unknown origin); type: ADME
Sequence of Cytochrome P450 2C19 (P33261 whole entry): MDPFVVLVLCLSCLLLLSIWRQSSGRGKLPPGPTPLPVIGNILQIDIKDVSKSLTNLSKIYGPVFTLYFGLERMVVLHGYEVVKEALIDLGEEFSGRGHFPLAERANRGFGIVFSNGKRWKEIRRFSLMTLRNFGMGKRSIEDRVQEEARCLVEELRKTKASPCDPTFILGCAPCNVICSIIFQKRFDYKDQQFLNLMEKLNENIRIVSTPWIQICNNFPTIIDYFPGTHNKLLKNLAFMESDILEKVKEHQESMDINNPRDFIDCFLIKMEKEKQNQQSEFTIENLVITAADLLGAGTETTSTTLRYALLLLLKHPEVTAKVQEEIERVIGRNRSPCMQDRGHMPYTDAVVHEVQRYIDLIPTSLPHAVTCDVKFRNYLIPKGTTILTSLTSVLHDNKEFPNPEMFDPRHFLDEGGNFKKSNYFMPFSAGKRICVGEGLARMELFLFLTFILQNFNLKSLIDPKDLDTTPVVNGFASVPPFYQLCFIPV

Mus musculus [13] = assay: Antiarthritic activity against anticollagen antibody-induced arthritis BALB/c mouse model assessed as reduction in LPS-induced cells expressing B220 receptor administered orally twice daily followed by LPS stimulation after 6 hrs measured on day 12 by RT-PCR analysis; type: functional, organism-based; conditions: dose 2-10 mg/kg, time 12.0 day
Mus musculus [14] = assay: Antiarthritic activity against anticollagen antibody-induced arthritis BALB/c mouse model assessed as reduction in LPS-induced CXCL10 levels administered orally twice daily followed by LPS stimulation after 6 hrs measured on day 12 by RT-PCR analysis; type: functional, organism-based; conditions: dose 2-10 mg/kg, time 12.0 day
[15] = Total AUC in mouse at 0.5 mg/kg, iv; type: ADME, organism-based; design: route intravenous, time AUCmax, dose 0.5 mg/kg; conditions: in vivo
[16] = Selectivity ratio of drug exposure in anticollagen antibody-induced arthritis BALB/c mouse model at 10 mg/kg, po BID for 12 days to IC50 for inhibition of human TNFalpha expressed in HEK-Blue-CD40L cells assessed as inhibition of NFkappaB activation by quanti-blue based SEAP assay
[17] = Metabolic stability in mouse liver microsomes assessed as parent compound remaining after 10 mins; type: ADME, Microsome; conditions: read-out: Stabilty
Mus musculus [18] = assay: Antiarthritic activity against anticollagen antibody-induced arthritis BALB/c mouse model assessed as reduction in LPS-induced TNFalpha production administered orally twice daily followed by LPS stimulation after 6 hrs measured on day 12 by RT-PCR analysis; type: functional, organism-based; conditions: dose 2-10 mg/kg, time 12.0 day
CD40 ligand = target: T3, CD40 ligand (Homo sapiens, UniProt P29965); assay: Inhibition of CD40L (unknown origin)
T3 sequence (P29965 whole entry): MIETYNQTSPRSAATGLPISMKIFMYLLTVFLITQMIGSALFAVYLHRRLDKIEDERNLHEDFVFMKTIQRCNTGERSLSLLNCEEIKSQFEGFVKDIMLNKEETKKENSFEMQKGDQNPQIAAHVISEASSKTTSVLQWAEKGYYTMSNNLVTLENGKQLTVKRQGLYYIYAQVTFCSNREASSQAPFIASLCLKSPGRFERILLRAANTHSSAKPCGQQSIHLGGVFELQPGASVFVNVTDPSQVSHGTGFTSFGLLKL

[19] = Half-life in mouse at 0.5 mg/kg, iv; type: ADME, organism-based; conditions: in vivo
Mus musculus [20] = assay: Antiarthritic activity against anticollagen antibody-induced arthritis BALB/c mouse model assessed as reduction in LPS-induced cells expressing CD3 receptor administered orally twice daily followed by LPS stimulation after 6 hrs measured on day 12 by RT-PCR analysis; type: functional, organism-based; conditions: dose 2-10 mg/kg, time 12.0 day
[21] = Terminal drug exposure in anticollagen antibody-induced arthritis BALB/c mouse model at 10 mg/kg, po BID followed by LPS stimulation after 6 hrs measured on day 12; type: ADME, organism-based; conditions: in vivo, time 12 day, read-out: Drug uptake
[22] = Protein binding in mouse assessed as unbound fraction; type: ADME
[23] = Volume of distribution at steady state in mouse at 0.5 mg/kg, iv; type: ADME, organism-based; conditions: in vivo, read-out: Vdss
Mus musculus [24] = assay: Antiinflammatory activity in TNFalpha-induced C57BL/6J mouse assessed as inhibition of serum IL-6 levels at 5 to 25 mg/kg, po pretreated with compound prior to 1 hr of TNFalpha challenge and measured 2 hrs post TBFalpha challenge by ELISA; type: functional, organism-based; conditions: dose 5-25 mg/kg, time 3.0 hrs

Cc1nc2cc(F)c(-c3cnc(C(C)(C)O)nc3)nc2c(N[C@H](C)c2cc(C#N)ccc2F)c1Cl
Activity [1]: 28 kDa | IC50 (Tumor necrosis factor): 0.025 µM | Activity (Mus musculus [2]): Dose-dependent effect | Activity (Mus musculus [3]): Dose-dependent effect | IC50 [4]: > 10 µM | Papp A→B [5]: 20 ×10⁻⁶ cm/s | Fu [6]: 0.35% | Selectivity ratio [7]: 2 | concentration at 288 h [8]: 340 nM | Cmax [9]: 470 nM | half-life [10]: 1.3 h | clearance [11]: 6.6 mL/min/kg | bioavailability [12]: 58% | IC50 (Cytochrome P450 2C19): > 20 µM | Activity (Mus musculus [13]): Dose-dependent effect | Activity (Mus musculus [14]): Dose-dependent effect | AUC [15]: 2.5 µM·h | Selectivity ratio [16]: 4.4 | remaining at 10 min [17]: 86% | Activity (Mus musculus [18]): Dose-dependent effect | IC50 (CD40 ligand): > 10 µM | half-life [19]: 6.2 h | Activity (Mus musculus [20]): Dose-dependent effect | concentration at 288 h [21]: 1130 nM | Fu [22]: 0.6% | Vd [23]: 3.2 L/kg | Activity (Mus musculus [24]): Active
